# Results as given in PubChem BioAssay AID1963850 (Molecular Pharmacology Branch, DTP, NCI, 2024).
# Tested on: 192522-019-R-J2-PDC complex tumor spheroid viability
# Experiment: Anticancer human tumor 192522-019-R-J2-PDC patient-derived colon adenocarcinoma cell line growth inhibition [POLQ]
# Conditions: for IC50: curve of first compound; for viability, T/C: stronger effect = lower value
# Summary of the method: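 Growth inhibition in 3D: complex spheroids (tumor PDC, HUVEC, MSC) treated with POLQ inhibitor combinations; where Cmax unknown, highest tested concentration 10 microM, except SN-38 at 1 microM.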
# [1] = second compound 0.0316 µM, first compound 0.0316 µM
# [2] = second compound 0.0316 µM, first compound 0.1 µM
# [3] = second compound 0.1 µM, first compound 0.0316 µM
# [4] = second compound 0.1 µM, first compound 0.1 µM
# [5] = second compound 0.316 µM, first compound 0.0316 µM
# [6] = second compound 0.316 µM, first compound 0.1 µM
# [7] = second compound 1 µM, first compound 0.0316 µM
# [8] = second compound 1 µM, first compound 0.1 µM
# [9] = second compound 3.16 µM, first compound 0.0316 µM
# [10] = second compound 3.16 µM, first compound 0.1 µM
# [11] = second compound 10 µM, first compound 0.0316 µM
# [12] = second compound 10 µM, first compound 0.1 µM
# 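Also: spheroids exposed to drugs for seven days before reading.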
# 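For viability, T/C in this document: 100% = DMSO vehicle control viability in luminescence.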
smiles,measurement,setting,value
CC(=O)O[C@H]1C(=O)[C@@]2(C)[C@H]([C@H](OC(=O)c3ccccc3)[C@]3(O)C[C@H](OC(=O)[C@H](O)[C@@H](NC(=O)c4ccccc4)c4ccccc4)C(C)=C1C3(C)C)[C@]1(OC(C)=O)CO[C@@H]1C[C@@H]2O + Cc1cccc(N(C)C(=O)C2C(O)CCN2c2nc(C)cc(C(F)(F)F)c2C#N)c1,IC50,second compound 0.0316 µM,> 3 µM
same,IC50,second compound 0.1 µM,> 3 µM
same,IC50,second compound 0.316 µM,> 3 µM
same,IC50,second compound 1 µM,> 3 µM
same,IC50,second compound 3.16 µM,> 3 µM
same,IC50,second compound 10 µM,> 3 µM
same,"viability, T/C","second compound 0.0316 µM, first compound 0.00949 µM",90%
same,"viability, T/C","second compound 0.0316 µM, first compound 0.03 µM",69.4%
same,"viability, T/C","second compound 0.0316 µM, first compound 0.0949 µM",52.2%
same,"viability, T/C","second compound 0.0316 µM, first compound 0.3 µM",59%
same,"viability, T/C","second compound 0.0316 µM, first compound 0.949 µM",56.8%
same,"viability, T/C","second compound 0.0316 µM, first compound 3 µM",54.7%
same,"viability, T/C","second compound 0.1 µM, first compound 0.00949 µM",98.5%
same,"viability, T/C","second compound 0.1 µM, first compound 0.03 µM",74.3%
same,"viability, T/C","second compound 0.1 µM, first compound 0.0949 µM",53.1%
same,"viability, T/C","second compound 0.1 µM, first compound 0.3 µM",64.4%
same,"viability, T/C","second compound 0.1 µM, first compound 0.949 µM",60.4%
same,"viability, T/C","second compound 0.1 µM, first compound 3 µM",57.9%
same,"viability, T/C","second compound 0.316 µM, first compound 0.00949 µM",92.1%
same,"viability, T/C","second compound 0.316 µM, first compound 0.03 µM",79.5%
same,"viability, T/C","second compound 0.316 µM, first compound 0.0949 µM",61.8%
same,"viability, T/C","second compound 0.316 µM, first compound 0.3 µM",58.4%
same,"viability, T/C","second compound 0.316 µM, first compound 0.949 µM",64.3%
same,"viability, T/C","second compound 0.316 µM, first compound 3 µM",62.4%
same,"viability, T/C","second compound 1 µM, first compound 0.00949 µM",102%
same,"viability, T/C","second compound 1 µM, first compound 0.03 µM",84%
same,"viability, T/C","second compound 1 µM, first compound 0.0949 µM",61.1%
same,"viability, T/C","second compound 1 µM, first compound 0.3 µM",60.3%
same,"viability, T/C","second compound 1 µM, first compound 0.949 µM",54.3%
same,"viability, T/C","second compound 1 µM, first compound 3 µM",55.5%
same,"viability, T/C","second compound 3.16 µM, first compound 0.00949 µM",105%
same,"viability, T/C","second compound 3.16 µM, first compound 0.03 µM",79.8%
same,"viability, T/C","second compound 3.16 µM, first compound 0.0949 µM",61.8%
same,"viability, T/C","second compound 3.16 µM, first compound 0.3 µM",59.5%
same,"viability, T/C","second compound 3.16 µM, first compound 0.949 µM",65.8%
same,"viability, T/C","second compound 3.16 µM, first compound 3 µM",57.4%
same,"viability, T/C","second compound 10 µM, first compound 0.00949 µM",94%
same,"viability, T/C","second compound 10 µM, first compound 0.03 µM",67.8%
same,"viability, T/C","second compound 10 µM, first compound 0.0949 µM",58.3%
same,"viability, T/C","second compound 10 µM, first compound 0.3 µM",58.9%
same,"viability, T/C","second compound 10 µM, first compound 0.949 µM",56.8%
same,"viability, T/C","second compound 10 µM, first compound 3 µM",63.3%
CC[C@@]1(O)C(=O)OCc2c1cc1n(c2=O)Cc2cc3c(CN(C)C)c(O)ccc3nc2-1 + Cc1cccc(N(C)C(=O)C2C(O)CCN2c2nc(C)cc(C(F)(F)F)c2C#N)c1,IC50,second compound 0.0316 µM,> 0.1 µM
same,IC50,second compound 0.1 µM,> 0.1 µM
same,IC50,second compound 0.316 µM,> 0.1 µM
same,IC50,second compound 1 µM,> 0.1 µM
same,IC50,second compound 3.16 µM,> 0.1 µM
same,IC50,second compound 10 µM,> 0.1 µM
same,"viability, T/C","second compound 0.0316 µM, first compound 0.000316 µM",116%
same,"viability, T/C","second compound 0.0316 µM, first compound 0.001 µM",93.7%
same,"viability, T/C","second compound 0.0316 µM, first compound 0.00316 µM",103%
same,"viability, T/C","second compound 0.0316 µM, first compound 0.01 µM",99.2%
same,"viability, T/C",[1],98.7%
same,"viability, T/C",[2],62.4%
same,"viability, T/C","second compound 0.1 µM, first compound 0.000316 µM",106%
same,"viability, T/C","second compound 0.1 µM, first compound 0.001 µM",98.4%
same,"viability, T/C","second compound 0.1 µM, first compound 0.00316 µM",102%
same,"viability, T/C","second compound 0.1 µM, first compound 0.01 µM",94.5%
same,"viability, T/C",[3],88%
same,"viability, T/C",[4],64.5%
same,"viability, T/C","second compound 0.316 µM, first compound 0.000316 µM",102%
same,"viability, T/C","second compound 0.316 µM, first compound 0.001 µM",106%
same,"viability, T/C","second compound 0.316 µM, first compound 0.00316 µM",104%
same,"viability, T/C","second compound 0.316 µM, first compound 0.01 µM",102%
same,"viability, T/C",[5],93.8%
same,"viability, T/C",[6],70%
same,"viability, T/C","second compound 1 µM, first compound 0.000316 µM",106%
same,"viability, T/C","second compound 1 µM, first compound 0.001 µM",106%
same,"viability, T/C","second compound 1 µM, first compound 0.00316 µM",111%
same,"viability, T/C","second compound 1 µM, first compound 0.01 µM",102%
same,"viability, T/C",[7],96.2%
same,"viability, T/C",[8],75.2%
same,"viability, T/C","second compound 3.16 µM, first compound 0.000316 µM",99.2%
same,"viability, T/C","second compound 3.16 µM, first compound 0.001 µM",114%
same,"viability, T/C","second compound 3.16 µM, first compound 0.00316 µM",115%
same,"viability, T/C","second compound 3.16 µM, first compound 0.01 µM",98.4%
same,"viability, T/C",[9],102%
same,"viability, T/C",[10],79.5%
same,"viability, T/C","second compound 10 µM, first compound 0.000316 µM",110%
same,"viability, T/C","second compound 10 µM, first compound 0.001 µM",107%
same,"viability, T/C","second compound 10 µM, first compound 0.00316 µM",120%
same,"viability, T/C","second compound 10 µM, first compound 0.01 µM",102%
same,"viability, T/C",[11],95.3%
same,"viability, T/C",[12],75%
O=c1[nH]cc(F)c(=O)[nH]1 + Cc1cccc(N(C)C(=O)C2C(O)CCN2c2nc(C)cc(C(F)(F)F)c2C#N)c1,IC50,second compound 0.0316 µM,> 10 µM
same,IC50,second compound 0.1 µM,> 10 µM
same,IC50,second compound 0.316 µM,> 10 µM
same,IC50,second compound 1 µM,> 10 µM
same,IC50,second compound 3.16 µM,> 10 µM
same,IC50,second compound 10 µM,> 10 µM
same,"viability, T/C",[1],111%
same,"viability, T/C",[2],88.5%
same,"viability, T/C","second compound 0.0316 µM, first compound 0.316 µM",76.8%
same,"viability, T/C","second compound 0.0316 µM, first compound 1 µM",87.2%
same,"viability, T/C","second compound 0.0316 µM, first compound 3.16 µM",91.3%
same,"viability, T/C","second compound 0.0316 µM, first compound 10 µM",72.4%
same,"viability, T/C",[3],103%
same,"viability, T/C",[4],92.8%
same,"viability, T/C","second compound 0.1 µM, first compound 0.316 µM",84.6%
same,"viability, T/C","second compound 0.1 µM, first compound 1 µM",81.7%
same,"viability, T/C","second compound 0.1 µM, first compound 3.16 µM",81%
same,"viability, T/C","second compound 0.1 µM, first compound 10 µM",85.3%
same,"viability, T/C",[5],95.5%
same,"viability, T/C",[6],95.9%
same,"viability, T/C","second compound 0.316 µM, first compound 0.316 µM",85%
same,"viability, T/C","second compound 0.316 µM, first compound 1 µM",80.7%
same,"viability, T/C","second compound 0.316 µM, first compound 3.16 µM",78%
same,"viability, T/C","second compound 0.316 µM, first compound 10 µM",86.1%
same,"viability, T/C",[7],96.8%
same,"viability, T/C",[8],92.9%
same,"viability, T/C","second compound 1 µM, first compound 0.316 µM",87.1%
same,"viability, T/C","second compound 1 µM, first compound 1 µM",96.1%
same,"viability, T/C","second compound 1 µM, first compound 3.16 µM",89%
same,"viability, T/C","second compound 1 µM, first compound 10 µM",82.9%
same,"viability, T/C",[9],112%
same,"viability, T/C",[10],88.9%
same,"viability, T/C","second compound 3.16 µM, first compound 0.316 µM",87.1%
same,"viability, T/C","second compound 3.16 µM, first compound 1 µM",81.4%
same,"viability, T/C","second compound 3.16 µM, first compound 3.16 µM",93.1%
same,"viability, T/C","second compound 3.16 µM, first compound 10 µM",78.6%
same,"viability, T/C",[11],106%
same,"viability, T/C",[12],89.1%
same,"viability, T/C","second compound 10 µM, first compound 0.316 µM",81.6%
same,"viability, T/C","second compound 10 µM, first compound 1 µM",83.6%
same,"viability, T/C","second compound 10 µM, first compound 3.16 µM",88.3%
same,"viability, T/C","second compound 10 µM, first compound 10 µM",75.9%
